From patent US20200199530A1, “METHODS OF DIFFERENTIATING STEM CELL-DERIVED ECTODERMAL LINEAGE PRECURSORS” (MEMORIAL SLOAN-KETTERING CANCER CENTER, priority 2017, published 2020)
“Also recorded” adds a separate entry of the source.

Key:
[1] = test system: hPSC differentiated towards pituitary placode; assay: Pituitary placode induction from hPSC; type: cell-based, human; settings: 1 μM, with FGF8 and FGF10, day 15
Method: For pituitary differentiation cells were plated at 250 000 cells/cm^2 on VTN-N coated dishes (differentiation works best in 24 well plates) in E8+10 μM Y-27632. After 24 h (day0) medium was changed to E6 supplemented with 10 μM SB431542 and 5 ng/ml BMP4 (R&D Systems). Medium was changed every day. On day 3 BMP4 was removed from the medium and cells were cultured for 1 day in E6+10 μM SB431542. For the standard differentiation conditions, on day 4 E6 was supplemented with 10 μM SB431542, 200 ng/ml SHH (R&D Systems, C25II), 100 ng/ml FGF8b (R&D Systems) and 50 ng/ml FGF10 (Peprotech Inc.). For some experiments SHH was replaced by 1 μM purmorphamine (Stemgent) or 1 μM SAG (Stemcell Technologies). From now on medium volume was doubled and cells were feed every other day until day 15. […] Purified cells were then plated as droplets (50 000 cells/10 μl drop) in E6 supplemented with 10 μM Y-27632, 200 ng/ml SHH, 100 ng/ml FGF8b and 50 ng/ml FGF10 on polyornithine/laminin/fibronectin-coated plates. After 24 h medium was changed to E6 containing SHH, FGF8 and FGF10 until day 30. Medium was changed every other day. […] For quantitative RT PCR the present example used the SSoFast EvaGreen Mix (BioRad) in combination with QuantiTect primer assays (Qiagen) on a BioRad CFX96 Thermal Cycler. […] Results are calculated using the ΔΔCt method (Livak and Schmittgen, 2001).

[2] = test system: human pluripotent stem cells (PAX6::H2B-GFP reporter); assay: Neuroectoderm induction in E6 media, PAX6 positive cells; type: cell-based; settings: day 12 post induction, no small molecules ~40%
Method: (§1) All differentiations starting from E8 were dissociated into single cells using EDTA and re-plated at high density in E8 with the ROCK inhibitor (Tocris). Cells were typically seeded at a density of 200,000 cells/cm^2 on Matrigel coated dishes. Switching from E8 to E6 triggered differentiations (i.e. d0). Neuroectoderm (NE) formation was generated by culturing the cells in E6 with 10 μM SB and 500 nM LDN until d12. Neural Crest (NC) was first treated with 10 μM SB, 600 nM CHIR and 1 ng/ml BMP4 from d0-d2. At d3, cells were maintained in 10 μM SB with 1.5 uM CHIR until d12. Lens placode was first treated with 10 μM SB and 5 ng/ml BMP4 from d0-d2. At d3, cells were maintained in 10 μM SB with 50 ng/ml FGF2 until d12. Trigeminal placode was first treated with 10 μM SB and 5 ng/ml BMP4 from d0-d2. At d2, 600 nm CHIR was added. At d3, cells were treated with 10 μM SB and 600 nM CHIR. From d4-d12, cells were treated with 10 μM SB. Finally, non-neural ectoderm (NNE) was treated with 10 μM SB, 10 μM SU5402 and 10 ng/ml BMP4 from d0-d1, and then treated with 10 μM SB and 5 ng/ml BMP4 from d2-d12.
Neuroectoderm differentiation. Day 0 (0-24 hrs): Add E6 media containing 500 nM LDN+10 μM SB to cells. To skew the differentiation more toward an anterior neuroectoderm, add E6 media containing 500 nM LDN+10 μM SB+5 μM XAV to cells. […]

hPSCs = assay: Tolerability of small molecules during E6-based differentiation; type: cell-based, human; settings: had to be re-titrated
[3] = test system: SIX1 placode cells (PAX3 expression); assay: Trigeminal placode induction by CHIR99021 pulse; type: cell-based, human; settings: additional pulse after the placode-inducing BMP pulse
Method: as §1
Trigeminal Placode differentiation. Day 0 (0-24 hrs): Add E6 media containing 5 ng/ml BMP4+10 μM SB to cells.
(§2) Day 1 (24-48 hrs): Change media with E6 media containing 5 ng/ml BMP4+10 μM SB to cells.
Day 2 (48-72 hrs): Change media with E6 media containing 5 ng/ml BMP4+10 μM SB+600 nM CHIR to cells. […]

rodent GSK3β homologs = settings: cited from earlier work
[4] = test system: hPSC (SOX10::GFP reporter); assay: Neural crest induction in E6 media, SOX10 positive cells; type: cell-based, human
Method: as §1
Neural Crest differentiation. Day 0 (0-24 hrs): Add E6 media containing 1 ng/ml BMP4+10 μM SB+600 nM CHIR to cells.
Day 1 (24-48 hrs): Change media with E6 media containing 1 ng/ml BMP4+10 μM SB+600 nM CHIR to cells. […]

[5] = test system: hPSC (SIX1::H2B-GFP reporter); assay: Cranial placode induction in E6 media, SIX1 positive cells; type: cell-based, human; settings: three-day pulse with SB431542 in E6
Method: as §1
Cranial Placode differentiation. Day 0 (0-24 hrs): Add E6 media containing 5 ng/ml BMP4+10 μM SB to cells.
as §2
Day 2 (48-72 hrs): Change media with E6 media containing 5 ng/ml BMP4+10 μM SB to cells. […]

[6] = test system: hPSCs (TFAP2A expression); assay: BMP4 induction of TFAP2A and non-neural ectoderm in E6 media; type: cell-based, human
Method: as §1, with “Finally, non-neural ectoderm (NNE) was treated with 10 μM SB, 10 μM SU5402 and 10 ng/ml BMP4 from d0-d1, and then treated with 10 μM SB and 5 ng/ml BMP4 from d2-d12.” left out
Human embryonic (H9, H1, HUES8, HUES6 and MEL1) and induced pluripotent stem cells (BJ1, MRC5 and SeV6) were adapted in the E8 media for a minimum of 4 passages (˜2 weeks) and induced to differentiate into the four ectodermal lineages. Bulk differentiations were dissociated using Accutase for 30 min at 37° C. at day 10 of differentiation and seeded in 96 well imaging plates. Cells were fixed two days later using 4% paraformaldehyde and permeabilized using 0.5% Triton-X and maintained in 0.2% Tween all diluted with PBS. Cells were then stained using antibodies against various markers indicative of the ectodermal lineages. Plates were scanned and measurements recorded using an IN Cell Analyzer 6000 (GE) and quantified using the Columbus image analysis software (PerkinElmer). Experiments involving these cell lines were biologically replicated (n=4) and technically replicated (n=2 per biological replicate).

c1ccc2c(Oc3nc(Nc4ccc(N5CCOCC5)cc4)c4ncn(C5CCCCC5)c4n3)cccc2c1 [purmorphamine]
replacement of recombinant SHH in pituitary induction [1]: can be replaced

NC(=O)c1ccc(-c2nc(-c3ccc4c(c3)OCO4)c(-c3ccccn3)[nH]2)cc1 [SB431542, 4-[4-(1,3-benzodioxol-5-yl)-5-(2-pyridinyl)-1H-imidazol-2-yl]-benzamide]
percentage of cells expressing PAX6 [2]: ~90%

Cc1c[nH]c(-c2cnc(NCCNc3ccc(C#N)cn3)nc2-c2ccc(Cl)cc2Cl)n1 [CHIR99021, 6-(2-(4-(2,4-dichlorophenyl)-5-(4-methyl-1H-imidazol-2-yl)pyrimidin-2-ylamino)ethylamino)nicotinonitrile]
cell killing at the original (KSR protocol) concentration (hPSCs): effectively killed the cells
PAX3 expression in placode cells [3]: capable of triggering PAX3+ and PAX6− expression
IC50 values against rodent GSK3β homologs (rodent GSK3β homologs): nanomolar

CNC1CCC(N(Cc2cccc(-c3ccncc3)c2)C(=O)c2sc3ccccc3c2Cl)CC1 (stereo not drawn) [SAG]
replacement of recombinant SHH in pituitary induction [1]: can be replaced

B1: BMP4: activator of BMP signaling (protein, UniProt P12644 293-408, looked up)
Bone morphogenetic protein 4: SPKHHSQRARKKNKNCRRHSLYVDFSDVGWNDWIVAPPGYQAFYCHGDCPFPLADHLNSTNHAIVQTLVNSVNSSIPKACCVPTELSAISMLYLDEYDKVVLKNYQEMVVEGCGCR
SOX10 positive NC population ([4]; short pulse 1 ng/ml in combination with WNT activation): nearly homogenous SOX10 positive NC population; also recorded: nearly homogeneous SOX10+ NC population
BMP4 concentration giving strong NC induction (dose-response studies) ([4]; three-day pulse with SB431542 in E6): around 1 ng/ml
BMP4 concentration optimal for CP induction (dose-response studies) [5]: around 5 ng/ml
NNE marker phenotype at high BMP4 concentration ([6]; 20 ng/ml): cells become TFAP2A+ and lack expression of SOX10 and SIX1; also recorded: derivation of TFAP2A+, PAX6−, SIX1−, and SOX10− NNE is achieved
percentages of TFAP2A+ cells ([6]; with addition of BMP4, range across ESC/iPSC lines, 0%-5% without BMP4): 56%-95%
TFAP2A expression ([6]; within 3 days of treatment, dose-dependent): rapidly upregulated
